The numbers were not newly measured in paper PMC8541945 (Investigational New Drugs, 2021), which cites them from elsewhere.

Structures are written as SMILES.

The subject of series [1] is heavily pretreated patients, HR + /HER2- advanced BC. Set-up: method as in PMID 28533223. The note with it: abemaciclib alone, 132 heavily pretreated patients.
Series [2] has as its system patients. Set-up: method as in PMID 28580882, PMID 28968163.
In series [3] the test system is brain metastases secondary to HR + /HER2- metastatic BC. The arrangement: method as in earlier work.
Series [4] deals with patients. The note with it: single agent, phase 1 trials.
Series [5] deals with patients in the ribociclib group.
For series [6] the following is noted: following multiple doses, 600-mg dose group.

On to `CCN1CCN(Cc2ccc(Nc3ncc(F)c(-c4cc(F)c5nc(C)n(C(C)C)c5c4)n3)nc2)CC1` [abemaciclib], for which, in series [1], the CBR was 42.4%, the “Confirmed ORR” value is on record as 19.7%, the “Median OS” value was 17.7 months and the “Median PFS” value is 6.0 months. For the same compound, the “Grade 3/4 neutropenia” value with patients [2] is 21.1%. Moreover, in series [3], the “Confirmed objective intracranial response” value is 6%, the “Intracranial clinical benefit rate (CR + PR + SD persisting for ≥ 6 months)” value was 25% and the “Patients with a decrease in the sum of intracranial target lesions” value is on record as 38%.
As to `CC(=O)c1c(C)c2cnc(Nc3ccc(N4CCNCC4)cn3)nc2n(C2CCCC2)c1=O` [palbociclib], in the series with patients [4], the “Patients who experienced SD” value is “approximately 30%”.
In the case of `CN(C)C(=O)c1cc2cnc(Nc3ccc(N4CCNCC4)cn3)nc2n1C1CCCC1` [ribociclib], the “Patients with dose interruptions or dose reductions due to QTcF increase” value in series [5] (13 patients) is 4%. Besides, the “Patients with increase of more than 60 ms from baseline in the QTcF interval” value in series [5] (32 of 335 patients in the ribociclib group) is reported as 10%. In addition, the “Patients who experienced SD” value with patients [4] is reported as “approximately 30%”. The “Cmax, geometric mean [range]” value in series [6] was 1940 [range, 859–5860] ng/ml.
